The nature of experiment [1]: THP-1 cell cytotoxicity, dose response, cytotoxicity control for non-replicating M. tuberculosis project (AID 489025). It is filed as functional.
A short description of the next experiment: cells. It is filed as functional.
The target in another experiment is T1, Exodeoxyribonuclease V (Escherichia coli (strain K12), UniProt P04993+P07648+P08394).
T1 sequence (P04993 whole entry): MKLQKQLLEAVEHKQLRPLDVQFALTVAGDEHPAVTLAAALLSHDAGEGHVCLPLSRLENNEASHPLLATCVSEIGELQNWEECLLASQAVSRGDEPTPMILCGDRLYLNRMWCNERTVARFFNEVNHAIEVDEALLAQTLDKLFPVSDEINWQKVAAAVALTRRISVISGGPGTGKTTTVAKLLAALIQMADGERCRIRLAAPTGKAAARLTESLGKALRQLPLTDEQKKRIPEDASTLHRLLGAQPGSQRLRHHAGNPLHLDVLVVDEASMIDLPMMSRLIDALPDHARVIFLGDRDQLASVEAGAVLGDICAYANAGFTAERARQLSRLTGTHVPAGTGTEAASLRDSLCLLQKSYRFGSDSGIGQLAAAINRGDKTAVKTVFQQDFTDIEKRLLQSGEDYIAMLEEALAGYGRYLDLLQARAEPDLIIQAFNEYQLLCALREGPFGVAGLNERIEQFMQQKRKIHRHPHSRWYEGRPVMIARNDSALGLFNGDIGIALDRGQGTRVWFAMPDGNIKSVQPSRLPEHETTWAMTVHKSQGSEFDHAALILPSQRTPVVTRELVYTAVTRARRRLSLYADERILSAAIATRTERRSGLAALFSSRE
T1 sequence (P07648 whole entry): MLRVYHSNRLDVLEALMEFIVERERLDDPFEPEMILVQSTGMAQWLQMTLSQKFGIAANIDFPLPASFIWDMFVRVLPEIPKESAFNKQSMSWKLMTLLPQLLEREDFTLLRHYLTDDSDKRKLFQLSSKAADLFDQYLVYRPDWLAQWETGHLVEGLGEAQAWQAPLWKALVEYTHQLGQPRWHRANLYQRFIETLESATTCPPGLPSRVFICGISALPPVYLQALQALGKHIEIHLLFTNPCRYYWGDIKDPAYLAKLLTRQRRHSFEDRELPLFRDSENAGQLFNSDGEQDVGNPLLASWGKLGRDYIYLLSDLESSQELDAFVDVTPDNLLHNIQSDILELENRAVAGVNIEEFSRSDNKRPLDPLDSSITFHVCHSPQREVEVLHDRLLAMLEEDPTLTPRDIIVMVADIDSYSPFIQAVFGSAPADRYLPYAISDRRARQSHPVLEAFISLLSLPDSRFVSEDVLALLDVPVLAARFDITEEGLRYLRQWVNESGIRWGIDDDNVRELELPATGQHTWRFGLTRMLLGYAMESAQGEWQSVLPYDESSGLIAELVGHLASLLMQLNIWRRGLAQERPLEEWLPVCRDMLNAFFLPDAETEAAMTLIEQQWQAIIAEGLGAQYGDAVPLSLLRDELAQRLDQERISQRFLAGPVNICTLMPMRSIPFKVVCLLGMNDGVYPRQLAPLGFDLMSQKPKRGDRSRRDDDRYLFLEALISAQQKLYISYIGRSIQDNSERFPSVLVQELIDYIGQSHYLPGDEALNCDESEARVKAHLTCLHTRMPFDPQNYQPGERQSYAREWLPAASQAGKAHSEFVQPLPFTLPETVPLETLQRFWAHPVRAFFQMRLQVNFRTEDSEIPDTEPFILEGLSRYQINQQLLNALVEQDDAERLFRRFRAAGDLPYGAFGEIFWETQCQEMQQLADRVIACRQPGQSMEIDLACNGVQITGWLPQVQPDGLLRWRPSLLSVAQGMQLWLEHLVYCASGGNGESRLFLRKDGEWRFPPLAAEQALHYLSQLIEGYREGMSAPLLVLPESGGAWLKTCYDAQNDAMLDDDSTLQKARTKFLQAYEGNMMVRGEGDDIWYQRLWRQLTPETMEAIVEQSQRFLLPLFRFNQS
T1 sequence (P08394 whole entry): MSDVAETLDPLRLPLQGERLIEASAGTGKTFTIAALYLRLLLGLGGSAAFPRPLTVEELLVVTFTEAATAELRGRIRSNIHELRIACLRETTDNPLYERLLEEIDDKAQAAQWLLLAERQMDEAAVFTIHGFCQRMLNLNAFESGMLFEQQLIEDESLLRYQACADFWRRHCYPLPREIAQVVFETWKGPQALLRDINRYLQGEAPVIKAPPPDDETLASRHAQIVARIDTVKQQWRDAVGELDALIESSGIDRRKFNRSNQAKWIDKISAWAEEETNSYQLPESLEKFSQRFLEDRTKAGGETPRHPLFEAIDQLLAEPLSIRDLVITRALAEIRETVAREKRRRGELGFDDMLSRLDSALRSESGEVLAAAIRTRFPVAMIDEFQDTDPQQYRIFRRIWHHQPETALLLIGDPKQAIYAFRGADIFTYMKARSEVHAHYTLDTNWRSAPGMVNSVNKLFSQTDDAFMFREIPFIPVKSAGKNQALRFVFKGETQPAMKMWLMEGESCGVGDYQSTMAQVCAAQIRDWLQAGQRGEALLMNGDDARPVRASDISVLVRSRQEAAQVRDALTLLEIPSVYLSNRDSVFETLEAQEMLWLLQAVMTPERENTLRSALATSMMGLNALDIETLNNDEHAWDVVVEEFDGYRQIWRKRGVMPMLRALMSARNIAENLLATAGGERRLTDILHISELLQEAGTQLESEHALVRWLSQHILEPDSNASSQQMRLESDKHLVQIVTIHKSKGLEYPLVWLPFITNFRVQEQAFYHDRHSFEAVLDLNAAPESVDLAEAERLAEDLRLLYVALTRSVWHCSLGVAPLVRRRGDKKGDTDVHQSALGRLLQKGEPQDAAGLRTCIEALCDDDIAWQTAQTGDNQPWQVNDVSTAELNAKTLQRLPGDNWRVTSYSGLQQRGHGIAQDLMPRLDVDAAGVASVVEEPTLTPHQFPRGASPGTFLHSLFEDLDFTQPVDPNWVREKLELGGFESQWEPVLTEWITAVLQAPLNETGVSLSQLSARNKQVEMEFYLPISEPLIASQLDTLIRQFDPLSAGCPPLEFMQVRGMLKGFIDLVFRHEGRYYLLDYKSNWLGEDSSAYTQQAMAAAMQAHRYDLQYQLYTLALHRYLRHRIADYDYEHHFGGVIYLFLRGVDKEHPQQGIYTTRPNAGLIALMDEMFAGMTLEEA
Put plainly: E. coli RecBCD inhibitors, dose response, counter-screen for AddAB inhibitor project, absorbance, V66 E. coli, mutant T4 phage (AID 492957). It is filed as functional, cell-based, Escherichia coli str. K-12 substr. MG1655.

Experiment [2] in a line: Counterscreen for AddAB inhibitors: absorbance-based bacterial cell-based high throughput dose response assay for inhibitors of bacterial viability. [Related pubchem assays (depositor defined):AID435030, AID449728, AID449731, AID488942, AID488955, AID488956]. It is filed as functional.
Experiment [3] in a line: inhibitors of clade B AD8 Env fusion, dose response, cell-based, cherry-pick (AID 652062).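 Also: luciferase signal from cell-cell fusion driven by HIV-1 clade B AD8 Env; potency is for inhibitors of fusion seen as a drop in luminescence.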 It is filed as functional.
The nature of experiment [4]: off-target signal loss in HeLa-CEM21 co-culture – HeLa F-luc CTL cells, cherry-picked, counter-screen for HIV-1 Env fusion inhibitor project, dose response (AID 652040).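 Also: potency for signal decrease marking cytotoxic or nonspecific inhibition.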 Format: functional, cell-based.
In experiment [5] the target is Cyclin-dependent kinase 5/CDK5 activator 1 (Homo sapiens, UniProt Q00535). Put plainly: CDK5/p35 kinase inhibitors, dose response, biochemical, cherry-picked samples, set 2 (AID 504545).
Sequence of Cyclin-dependent kinase 5/CDK5 activator 1 (Q00535 whole entry): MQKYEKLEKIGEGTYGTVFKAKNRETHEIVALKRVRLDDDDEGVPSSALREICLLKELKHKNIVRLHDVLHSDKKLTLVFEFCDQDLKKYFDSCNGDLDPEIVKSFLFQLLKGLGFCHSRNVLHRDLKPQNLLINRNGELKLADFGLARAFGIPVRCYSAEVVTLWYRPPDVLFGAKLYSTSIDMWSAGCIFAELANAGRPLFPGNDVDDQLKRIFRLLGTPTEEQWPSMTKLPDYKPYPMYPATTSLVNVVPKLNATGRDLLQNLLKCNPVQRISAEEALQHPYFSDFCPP
Sequence of Cyclin-dependent kinase 5/CDK5 activator 1 (Q15078 whole entry, further chain): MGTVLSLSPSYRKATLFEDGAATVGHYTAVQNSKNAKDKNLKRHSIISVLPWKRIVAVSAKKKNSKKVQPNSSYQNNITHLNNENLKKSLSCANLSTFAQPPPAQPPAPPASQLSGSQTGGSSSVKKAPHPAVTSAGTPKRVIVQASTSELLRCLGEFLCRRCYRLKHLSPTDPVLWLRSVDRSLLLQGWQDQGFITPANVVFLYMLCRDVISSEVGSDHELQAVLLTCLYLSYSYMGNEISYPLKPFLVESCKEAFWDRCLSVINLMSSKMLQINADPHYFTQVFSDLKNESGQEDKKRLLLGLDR
A further experiment concerns the target Paired box protein Pax-8 (Homo sapiens, UniProt Q06710). Put plainly: inhibitors of PAX8-driven TPO luciferase reporter, dose response, RMG-I cells, cherry-pick (AID 687027).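 Also: luciferase reporter driven by Pax8 target thyroperoxidase promoter measured by SteadyGlo luminescence.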 Format: functional, cell-based.
A short description of experiment [6]: ZM109 Env clade C HIV-1 fusion inhibitors, dose response, HeLa effector, CEM target cells, luciferase, cherry-pick (AID 652058). Format: functional, cell-based.
Experiment [7] can be described thus: CEM21 lymphoblast cell cytotoxicity, dose response, cytotoxicity control for viral fusion inhibitor project, CellTiter-Glo luminescence, cherry-picked (AID 652042).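 Also: potency for signal decrease meaning cytotoxicity.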 It is filed as functional, cell-based.
Experiment [8] has as its target Dual specificity tyrosine-phosphorylation-regulated kinase 1A (Rattus norvegicus, UniProt Q63470). It is filed as biochemical, Homo sapiens.
Experiment [9] in a line: inhibitors of HIV Env-driven cell fusion, dose response, cherry-pick (AID 652057). Format: functional, cell-based.

Here are results for 2 compounds from ChEMBL document CHEMBL1201862, “PubChem BioAssay data set” (2004).

SMILES strings stand for the structures. Activity calls are given as the source filed them. Some results are limits rather than exact numbers.

Sequence of Paired box protein Pax-8 (Q06710 whole entry, the tested form may be a part): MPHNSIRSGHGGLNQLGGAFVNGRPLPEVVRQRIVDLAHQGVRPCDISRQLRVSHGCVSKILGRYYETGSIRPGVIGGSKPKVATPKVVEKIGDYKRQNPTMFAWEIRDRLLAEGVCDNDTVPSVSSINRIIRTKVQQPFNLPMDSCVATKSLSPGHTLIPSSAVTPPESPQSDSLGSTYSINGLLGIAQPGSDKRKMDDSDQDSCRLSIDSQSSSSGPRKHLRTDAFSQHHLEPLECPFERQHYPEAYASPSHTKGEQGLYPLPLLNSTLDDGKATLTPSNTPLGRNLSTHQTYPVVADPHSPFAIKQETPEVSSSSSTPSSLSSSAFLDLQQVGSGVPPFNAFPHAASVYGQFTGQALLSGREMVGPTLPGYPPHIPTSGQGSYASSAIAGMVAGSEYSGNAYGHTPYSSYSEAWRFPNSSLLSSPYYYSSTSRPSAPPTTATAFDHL

As for `NC(=NOC(=O)c1ccc(Cl)cc1)c1ncc([N+](=O)[O-])s1`, the CC50 in experiment [1] was > 40 µM (active). The IC50 in the experiment “cells” was 19.2 µM (active); at Exodeoxyribonuclease V, > 119 µM (inactive); in experiment [2] it was 118 µM (inactive).

Turning to `N#Cc1c(N)n(C2OC(CO)C(O)C2O)c2ncnc(N)c12` (configuration not stated), the AC50 in experiment [3] is 2.86 µM (active); in [4], 663 nM (active); in experiment [5], 8.58 µM (active); on Paired box protein Pax-8, < 260 nM (active); in experiment [6], 822 nM (active); in experiment [7] it was < 260 nM (active). Besides, the AC50 in experiment [8] was 120 nM (active); in experiment [9], 609 nM (active).
